# Reference: patent US10407400B2, “Compounds, compositions, and methods for modulating sweet taste” (Chromocell Corporation, priority 2015, dated 2019)
# System: perception of sweet taste of High Fructose Corn Syrup (HFCS)
# Experiment: Two-alternative forced choice (2AFC) sip and spit sensory test of perceived sweetness in Lemon Lime beverage
# Type: in vivo, humans
# Conditions: Lemon Lime beverage pH 3.1
# Experimental: Effect of Test Compounds on the Perception of Sweet Taste of High Fructose Corn Syrup (HFCS) Two-alternative Forced Choice Method (2AFC). The effect of the test compounds and combinations of test compounds on the perception of the sweet taste of a flavored beverage (referred to as Lemon Lime henceforth) of sweetener in humans was evaluated using a two-alternative forced choice “sip and spit” method (2AFC). The Lemon Lime solutions were prepared by adding sucrose equivalent (SE) quantities of high fructose corn syrup (HFCS) (by weight), to water to achieve the desired concentration. The lemon lime pH is 3.1. Compounds were first prepared as a 500-fold concentrated stock solution in 100% ethanol. These concentrated stocks were then added to the aqueous sweetener solutions to result in a final ethanol concentration of 0.2%. […] In this manner, compounds were not assessed simply for an increase in perceived sweetness, but a significant increase in perceived sweetness above the positive control. […] Data were analyzed using binomial probabilities. Approximate levels of sweetness enhancement in column 5 of Table 1 were calculated as follows: Approximate levels of sweetness enhancement=Sweetener concentration of positive control surpassed by the test sample, divided by sweetener concentration for compound-containing sample (e.g. 1.5×=7.5brix HFCS/5brix HFCS).
smiles,measurement,setting,value
"COc1cc(C2CC(=O)Oc3cc(C)cc(O)c32)ccc1O (racemic) [Compound 1, 5-hydroxy-4-(4-hydroxy-3-methoxyphenyl)-7-methylchroman-2-one]",Fold increase in perceived sweetness,"positive control 10brix HFCS surpassed, divided by test sample 7.14brix HFCS, compound concentration 25 ppm (1) or 41.25 ppm (1 & 4)",>1.4X
same,Compound concentration with positive 2AFC results,"test sample 7.14brix HFCS with compound surpassed positive control 10brix HFCS, taste panelists n≥15, 0.2% ethanol",25 ppm
